Assay [1] concerns CHO cells for expression of recombinant human erythropoietin. The assay can be described thus: Capillary electrophoresis isoform analysis of recombinant human erythropoietin from cells cultured in supplemented medium. It counts as cell-based, Chinese hamster. The settings on record: basic medium added with 8 mM N-acetyl-D-mannosamine and/or 3 mM uridine, 5 days at 37° C., FIG. 3; for ratio of type I isoform to sum of all detected isoforms of recombinant human erythropoietin: type I = lowest isoelectric point. On the procedure: The above master cells stored in liquid nitrogen were quickly thawed in 37° C. thermostatic bath, and suspended in a basic medium, the CD Opti CHO™ medium (Life Technologies Inc.) supplemented with 2 mM of GlutaMAX (Life Technologies Inc.) and 1×HT Supplement (Life Technologies Inc.). Then, the cells were precipitated by centrifugation and corrected. The corrected cells were suspended with the basic medium to obtain the cell suspension, and the number of the living cells was counted. The cell suspension was diluted to the living cell density of 2×10^5 cells/mL with the basic medium.
The cell suspension was dispensed into culture vessels by 120 mL each to generate four groups and incubated for five days at 37° C. under 5% CO2. This incubation was conducted by using Bio Jr.8 (100 mL×8 vessels culture device, AbleBiott Inc.), and pH of the medium was kept at 6.9 and the dissolved oxygen level (DO) was kept at 40% during the incubation. At this time, uridine and N-acetyl-D-mannosamine were added at the concentration as shown in Table 1 to each of the groups (group 1 to group 4). The incubation was conducted four times for each of the groups.
On the fifth day of the incubation above, 10 mL of each of the cultures was corrected to centrifuging tubes and centrifuged at 3,000 rpm for 10 minutes. Then, the culture supernatants were corrected and diluted 1.5 times with purified water. Then, 7.5 mL of each of these diluted culture supernatants was loaded on Capto™ adhere column, a multi-modal anion exchange resin (column volume: 1 mL, GE Healthcare Bioscience Inc.) pre-equilibrated with 20 mM Tris buffer (pH 7.5). After washing the column with 5 column volumes of 20 mM Tris buffer (pH 7.5), recombinant human erythropoietin adsorbed by the resin was eluted with 20 mM Tris buffer (pH 7.5) containing 200 mM of NaCl to obtain eluted fractions. And the eluted fractions were concentrated by Amicon Ultra-4 Centrifugal Filter Units (molecular weight cut off: 3 kDa, Millipore Inc.) to 100 μL of volume.
The concentrated solution of each of the groups was subjected capillary electrophoresis by using Bare Fused-Silica Capillary (50 μm ID, 375 μm OD, 50 cm length, Beckmann Coulter Inc.) attached to capillary electrophoresis system (P/ACE™ system MDQ, Beckmann Coulter Inc.). In doing this, 10 mM Tris buffer (pH 4.5) containing 10 mM of sodium chloride, 500 mM of sodium acetate, 7 M of urea, and 2.5 mM of putrescine was used as an electrophoresis buffer, and the electrophoresis was performed at constant current of 24 μA for 50 minutes. Further the wave length at 214 nm was monitored by an UV detector to detect the recombinant human erythropoietin subjected to the electrophoresis.
The isoform showing the lowest isoelectric point among the isoforms showing different isoelectric points when detected by the capillary electrophoresis above was named as type I, and further the isoforms were named as type II and type III in ascending order of isoelectric point. The ratios of type I, type II, and type III to sum of all of detected isoforms were calculated, respectively. And the ratios were compared between the groups. The ratios of type I, type II, and type III in the recombinant human erythropoietin of the group 1 obtained by culturing the cells in the basic medium were about 0.7%, about 5%, and about 15%, respectively (FIG. 3).

For assay [2], the system named is CHO cells for expression of recombinant human FSH. Nature of the assay: Sialic acid content (HPLC peak area) of recombinant human FSH from cells cultured in supplemented medium. In kind it is cell-based, Chinese hamster. Particulars: for relative value of sialic acid peak area of recombinant human FSH (basic medium = 100%): basic medium added with 8 mM N-acetyl-D-mannosamine and/or 3 mM uridine, 5 days at 37° C., FIG. 9. On the procedure: The above master cells stored in liquid nitrogen were quickly thawed in 37° C. thermostatic bath, and suspended in a basic medium, the CD Opti CHO™ medium (Life Technologies Inc.) supplemented with 2 mM of GlutaMAX (Life Technologies Inc.) and 1×HT Supplement (Life Technologies Inc.). Then, the cells were precipitated by centrifugation and corrected. The corrected cells were suspended with the basic medium to obtain cell suspension, and the number of the living cells was counted. The cell suspension was diluted to the living cell density of 2×10^5 cells/mL with the basic medium.
The cell suspension was dispensed into culture vessels by 120 mL each to generate four groups and incubated for five days at 37° C. under 5% CO2. This incubation was conducted by using Bio Jr. 8 (100 mL×8 vessels culture device, AbleBiott Inc.), and pH of the medium was kept at 6.9 and the dissolved oxygen level (DO) was kept at 40% during the incubation. […]
50 μL of the concentrated solution of the purified recombinant human FSH of each of the groups was alkali-treated with 0.3M sodium hydroxide at 37° C. for 30 minutes, subsequently was acid-treated with 0.05M hydrochloric acid at 80° C. for 60 minutes to make glycans composing recombinant human FSH hydrolyzed to monosaccharides. Then, the solution were added with fluorescence reagent (a solution containing 9.6 mM of 1,2-diamino-4,5-methylene-dioxybenzene dihydrochloride, 24 mM of sodium hydrosulfite, and 1M of 2-mercaptoethanol), and heated at 50° C. for 150 minutes to fluorescently label the monosaccharides obtained by the hydrolysis. […] As a standard, sialic acid was concurrently treated with the same manner, and the standard of fluorescence-labeled sialic acid was obtained. The standard thus obtained was analyzed by HPLC using COSMOSIL 5C18-PAQ as reverse phase column, and the elution time of sialic acid, the time when the peak corresponding to sialic acid appeared, was measured. And each of the sample solutions was analyzed by HPLC and the area of peak corresponding to sialic acid was calculated. […]

As to `CC(=O)N[C@@H]1C(O)O[C@H](CO)[C@@H](O)[C@@H]1O` (stereo partly drawn) [N-acetyl-D-mannosamine], in assay [1], the “ratio of type II isoform to sum of all detected isoforms of recombinant human erythropoietin” value is given as “about 7%”, the “ratio of type III isoform to sum of all detected isoforms of recombinant human erythropoietin” value is “about 20.7%” and the “ratio of type I isoform to sum of all detected isoforms of recombinant human erythropoietin” value is “about 1.2%”. For the same molecule, the “relative value of sialic acid peak area of recombinant human FSH (basic medium = 100%)” value in assay [2] is on record as “about 100%”.
On to `O=c1ccn([C@@H]2O[C@H](CO)[C@@H](O)[C@H]2O)c(=O)[nH]1` [uridine], for which, in assay [1], the “ratio of type II isoform to sum of all detected isoforms of recombinant human erythropoietin” value was “about 3.5%”, the “ratio of type III isoform to sum of all detected isoforms of recombinant human erythropoietin” value was “about 13%” and the “ratio of type I isoform to sum of all detected isoforms of recombinant human erythropoietin” value was “about 0.3%”. The “increase of average number of sialic acid molecules per molecule of recombinant human FSH versus basic medium” value in assay [2] (basic medium added with 3 mM uridine, or with 8 mM N-acetyl-D-mannosamine and 3 mM uridine) is given as “about 10%”. For the same molecule, the “relative value of sialic acid peak area of recombinant human FSH (basic medium = 100%)” value in assay [2] is “about 112%”.

(Values after patent publication US10557115B2, “Medium containing uridine and N-acetyl-D-mannosamine” (JCR Pharmaceuticals Co., Ltd., priority 2015, dated 2020).)
